The subject of the experiment is 958767-090-R-J1-PDC spheroid growth. Nature of the experiment: Anticancer human tumor 958767-090-R-J1-PDC patient-derived head and neck squamous carcinoma cell line growth inhibition [IpAb]. To be noted: spheroids with HUVEC and MSC; for viability, T/C: stronger effect = lower value. The procedure, abridged:
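Spheroids of 60% malignant cells, 25% HUVEC and 15% MSC were exposed to targeted agents combined with ipatasertib or abemaciclib. Doses started at or near clinical Cmax (10 microM when unknown) and fell in half-log steps.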

[1] abbreviates: curve of first compound, second compound 0.1 µM.
The mark [2] stands for this setting: curve of first compound, second compound 0.316 µM.
The mark [3] stands for this setting: curve of first compound, second compound 1 µM.
The mark [4] stands for this setting: curve of first compound, second compound 3.16 µM.
Setting [5] is: curve of first compound, second compound 10 µM.
Where [6] appears, read: second compound 0.1 µM, first compound 0.0316 µM.
[7] abbreviates: second compound 0.1 µM, first compound 0.1 µM.
Setting [8] is: second compound 0.1 µM, first compound 0.316 µM.
Where [9] appears, read: second compound 0.1 µM, first compound 1 µM.
Setting [10] is: second compound 0.1 µM, first compound 3.16 µM.
Where [11] appears, read: second compound 0.1 µM, first compound 10 µM.
Setting [12] is: second compound 0.316 µM, first compound 0.0316 µM.
Setting [13] is: second compound 0.316 µM, first compound 0.1 µM.
Setting [14] is: second compound 0.316 µM, first compound 0.316 µM.
The mark [15] stands for this setting: second compound 0.316 µM, first compound 1 µM.
Setting [16] is: second compound 0.316 µM, first compound 3.16 µM.
Setting [17] is: second compound 0.316 µM, first compound 10 µM.
Setting [18] is: second compound 1 µM, first compound 0.0316 µM.
The mark [19] stands for this setting: second compound 1 µM, first compound 0.1 µM.
Setting [20] is: second compound 1 µM, first compound 0.316 µM.
Where [21] appears, read: second compound 1 µM, first compound 1 µM.
[22] abbreviates: second compound 1 µM, first compound 3.16 µM.
Where [23] appears, read: second compound 1 µM, first compound 10 µM.
The mark [24] stands for this setting: second compound 3.16 µM, first compound 0.0316 µM.
Where [25] appears, read: second compound 3.16 µM, first compound 0.1 µM.
Where [26] appears, read: second compound 3.16 µM, first compound 0.316 µM.
The mark [27] stands for this setting: second compound 3.16 µM, first compound 1 µM.
Where [28] appears, read: second compound 3.16 µM, first compound 3.16 µM.
Setting [29] is: second compound 3.16 µM, first compound 10 µM.
The mark [30] stands for this setting: second compound 10 µM, first compound 0.0316 µM.
The mark [31] stands for this setting: second compound 10 µM, first compound 0.1 µM.
The mark [32] stands for this setting: second compound 10 µM, first compound 0.316 µM.
Where [33] appears, read: second compound 10 µM, first compound 1 µM.
The mark [34] stands for this setting: second compound 10 µM, first compound 3.16 µM.
Where [35] appears, read: second compound 10 µM, first compound 10 µM.

Values joined by “and” are separate entries in the source; they are usually repeats but may differ in a detail not shown here. Identical values can stand only once.

Five compounds from PubChem BioAssay AID2060336 (Molecular Pharmacology Branch, DTP, NCI, 2025) can be followed below.

The IC50 is the concentration that inhibits the measured activity by half. In general, viability, T/C refers to the ratio of treated to control.
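For viability, T/C in this document: 100% = DMSO vehicle control wells.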

`C=CCn1c(=O)c2cnc(Nc3ccc(N4CCN(C)CC4)cc3)nc2n1-c1cccc(C(C)(C)O)n1` + CC(C)NCC(C(=O)N1CCN(c2ncnc3c2C(C)CC3O)CC1)c1ccc(Cl)cc1: the IC50 under setting [1] turned out to be 179 nM; the IC50 under setting [2] is 85 nM; the IC50 under setting [3] was found to be 45.5 nM; the IC50 under setting [4] is 45.9 nM; the IC50 under setting [5] is below 31.6 nM. In addition, the viability, T/C is, setting by setting: under setting [6], 88.2%; under setting [7], 65%; under setting [8], 35%; under setting [9], 25%; under setting [10], 23.7%; under setting [11], 19.6%. In addition, the viability, T/C under setting [12] is 64.1%; the viability, T/C under setting [13] was 47.7%; the viability, T/C under setting [14] was 24.2%; the viability, T/C under setting [15] was 17%; the viability, T/C under setting [16] is 17.8%; the viability, T/C under setting [17] is 15.2%. For the same compound, the viability, T/C is 52.1% under setting [18]; 45.4% under setting [19]; 23.5% under setting [20]; 15.6% under setting [21]; 16.9% under setting [22]; 13% under setting [23]. The viability, T/C reads like this: under setting [24], 55%; under setting [25], 39.6%; under setting [26], 22.2%; under setting [27], 16.2%; under setting [28], 14.8%; under setting [29], 11.9%. For the same compound, the viability, T/C was 39.1% under setting [30]; 32.4% under setting [31]; 17.9% under setting [32]; 13.9% under setting [33]; 13.6% under setting [34]; 7.78% under setting [35].

Consider `CC1(C)CCC(CN2CCN(c3ccc(C(=O)NS(=O)(=O)c4ccc(NCC5CCOCC5)c([N+](=O)[O-])c4)c(Oc4cnc5[nH]ccc5c4)c3)CC2)=C(c2ccc(Cl)cc2)C1`, for which the viability, T/C is, setting by setting: (compound 0.0316 µM) 79.8% and 92%; (compound 0.1 µM) 86.8% and 104%; (compound 0.316 µM) 90.3% and 99%; (compound 1 µM) 93.9% and 100%; (compound 3.16 µM) 105% and 112%; (compound 10 µM) 5.27% and 4.22%. Where the note is “curve of compound”, the IC50 is 5490 nM and 5830 nM.

For the compound `Cn1nccc1Nc1nccc(-c2ccn(C(CO)c3ccc(Cl)c(F)c3)c(=O)c2)n1` (stereo unspecified) + CC(C)NCC(C(=O)N1CCN(c2ncnc3c2C(C)CC3O)CC1)c1ccc(Cl)cc1, the IC50 reads like this: under setting [1], 495 nM; under setting [2], 137 nM; under setting [3], 64 nM; under setting [4], 38.5 nM; under setting [5], below 31.6 nM. The viability, T/C reads like this: under setting [6], 86.8%; under setting [7], 65.5%; under setting [8], 56.1%; under setting [9], 43.7%; under setting [10], 28.2%; under setting [11], 13.4%. Besides, the viability, T/C reads like this: under setting [12], 66.5%; under setting [13], 46.4%; under setting [14], 44.6%; under setting [15], 32.8%; under setting [16], 17.7%; under setting [17], 5.2%. The viability, T/C reads like this: under setting [18], 54.1%; under setting [19], 47.9%; under setting [20], 36.1%; under setting [21], 23.1%; under setting [22], 13.2%; under setting [23], 3.79%. The viability, T/C by setting is: under setting [24], 53.6%; under setting [25], 37.1%; under setting [26], 27.8%; under setting [27], 19.4%; under setting [28], 10.4%; under setting [29], 4.11%. For the same compound, the viability, T/C runs as follows: under setting [30], 44.7%; under setting [31], 35%; under setting [32], 24.1%; under setting [33], 15.2%; under setting [34], 8.11%; under setting [35], 3.09%.

As to `CC(=O)c1c(C)c2cnc(Nc3ccc(N4CCNCC4)cn3)nc2n(C2CCCC2)c1=O`, the viability, T/C (compound 0.000949 µM) is 76.6% and 103%; the viability, T/C (compound 0.003 µM) was 66.5% and 83.4%; the viability, T/C (compound 0.00949 µM) was 62.2% and 75.6%; the viability, T/C (compound 0.03 µM) was 62.2% and 68.8%; the viability, T/C (compound 0.0949 µM) was 63.7% and 65.3%; the viability, T/C (compound 0.3 µM) was 54.1% and 51.8%. The IC50 (curve of compound) is above 300 nM.

On to `CC(C)(C)c1cnc(CSc2cnc(NC(=O)C3CCNCC3)s2)o1`, for which the viability, T/C (compound 0.00949 µM) is 106% and 118%; the viability, T/C (compound 0.03 µM) is 97% and 116%; the viability, T/C (compound 0.0949 µM) was 85.4% and 100%; the viability, T/C (compound 0.3 µM) is 6.79% and 3.17%; the viability, T/C (compound 0.949 µM) is 2.83% and 2.21%; the viability, T/C (compound 3 µM) was 2.61% and 2.81%. Besides, the IC50 (curve of compound) was 159 nM and 172 nM.
